Results published in US20110318344A1, “Tumor Treatment” (MEDIZINISCHE UNIVERSITAET WIEN, priority 2009, published 2011).
Entries after “also recorded” stand apart in the source; their conditions may differ.

How the values were obtained:
SK-OV-3 cells = test: Proliferation assay (cell number by CASY cell counter, doubling time); type: cell-based, human
Description: The SK-OV-3 cell line was cultured equally the MDAH-2774 cell line except for the use of McCoy's medium. For applying the Tet-Off inducible system, founder cell lines were generated by transfecting SK-OV-3 cells with the pTet-Off vector (neo^r) encoding a tetracyclin repressible transactivator (tTA). Resistant colonies were selected with 200 μg/ml G418 and characterized by transient transfection with the luciferase reporter plasmid (pTRE-Luc), whose promoter is induced by the transactivator. Luciferase activity in the presence and absence of tetracycline was measured to identify cells with maximal promoter inducibility. […] These two founder cell lines were used to establish cells inducible for HCRP1-specific shRNA constructs (Open Biosystems; #V2HS 21202, #V2HS 21203), which were cloned into the SIN-TREmiR30-PIG vector (purr) downstream of the tetracycline inducible promoter. Thus, presence of tetracycline in the culture medium would suppress shRNA expression, while its withdrawal would induce the knock-down of HCRP1. […]
To maintain the logarithmic phase, cells were split at intervals of 48 hours, along with the determination of the cell number by a CASY cell counter (Innovatis AG, Bielefeld, Germany). […] From the obtained data doubling times (dt) were calculated and depicted as dt-1.

MDAH-2774 cells = test: as above; type: cell-based, human; details: MDAH-2774, HCRP1-silenced vs controls (FIG. 7B)
Description: To maintain the logarithmic phase, cells were split at intervals of 48 hours, along with the determination of the cell number by a CASY cell counter (Innovatis AG, Bielefeld, Germany). This procedure was performed in triplicates over a time-span of 6 days and confirmed by a replication of the whole experiment. From the obtained data doubling times (dt) were calculated and depicted as dt-1.

CS(=O)(=O)CCNCc1ccc(-c2ccc3ncnc(Nc4ccc(OCc5cccc(F)c5)c(Cl)c4)c3c2)o1 [Lapatinib]
dependence of the anti-proliferative effect on HCRP1 expression (SK-OV-3 cells; SKOV-3, HCRP1-silenced vs controls (FIG. 7A)): independent of HCRP1 expression; also recorded: unaffected by HCRP1 expression
doubling time (SK-OV-3 cells; SKOV-3 cells, 4 μM Lapatinib, 6 days, HCRP1 status not specified): 37.3 h
dependence of the anti-proliferative effect on HCRP1 expression (MDAH-2774 cells): independent of HCRP1 expression
